Our source for the IC50 values is patent US9637491B2, “Pyrazolo[4,3-D]pyrimidines as kinase inhibitors” (Origenis GmbH, priority 2012, dated 2017).

The target of this experiment is T1, SYK kinase (Homo sapiens, UniProt P43405).
T1 construct: purchased Invitrogen, Carlsbad
Put plainly: SYK assay (OMNIA Kinase Assay, Invitrogen). The experiment is classed as biochemical. To be noted: SYK Activities; 1 mM ATP, 10 μM Omnia Peptide Substrate Tyr 7, 30° C. In outline:
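Continuous-read fluorescence kinase assay: SOX-labelled Tyr 7 peptide (10 μM) with 1 mM ATP and 0.2 mM DTT, 30° C, reaction started by adding SYK. Fluorescence (ex 360/em 485 nm) read every 30 s for 30 min. IC50 from sigmoidal fit of reaction velocity versus inhibitor concentration.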
Broadly, the IC50 is the concentration that gives 50% inhibition. High values mean a need for much substance, low ones inhibition by little substance. With `CC(C)(C)N1CCC(n2cc(Nc3nc(C4CC4)nc4cn[nH]c34)cn2)CC1` [Example 328, N-(1-(1-(tert-butyl)piperidin-4-yl)-1H-pyrazol-4-yl)-5-cyclopropyl-1H-pyrazolo[4,3-d]pyrimidin-7-amine], the IC50 is under 0.01 µM.
With `FCCn1cc(Nc2nc(-c3ccoc3)nc3cn[nH]c23)cn1` [Example 361, N-(1-(2-fluoroethyl)-1H-pyrazol-4-yl)-5-(furan-3-yl)-1H-pyrazolo[4,3-d]pyrimidin-7-amine] the figure was 0.01 to 0.1 µM; with `FCCn1cc(Nc2nc(C3CC3)nc3cn[nH]c23)cn1` [Example 362, 5-cyclopropyl-N-(1-(2-fluoroethyl)-1H-pyrazol-4-yl)-1H-pyrazolo[4,3-d]pyrimidin-7-amine], 0.01 to 0.1 µM; with `FCCn1cc(Nc2nc(C3CCC3)nc3cn[nH]c23)cn1` [Example 363, 5-cyclobutyl-N-(1-(2-fluoroethyl)-1H-pyrazol-4-yl)-1H-pyrazolo[4,3-d]pyrimidin-7-amine], 0.01 to 0.1 µM.
Next, `Clc1c(Nc2nc(C3CCC3)nc3cn[nH]c23)cnn1C1CCNCC1` [Example 364, N-(5-chloro-1-(piperidin-4-yl)-1H-pyrazol-4-yl)-5-cyclobutyl-1H-pyrazolo[4,3-d]pyrimidin-7-amine]: 0.1 to 1 µM; `FCCn1cc(Nc2nc(-c3ccco3)nc3cn[nH]c23)cn1` [Example 367, N-(1-(2-fluoroethyl)-1H-pyrazol-4-yl)-5-(furan-2-yl)-1H-pyrazolo[4,3-d]pyrimidin-7-amine]: 0.01 to 0.1 µM; `CC(C)(O)Cn1cc(Nc2nc(-c3ccco3)nc3cn[nH]c23)cn1` [Example 369, 1-(4-((5-(furan-2-yl)-1H-pyrazolo[4,3-d]pyrimidin-7-yl)amino)-1H-pyrazol-1-yl)-2-methylpropan-2-ol]: 0.1 to 1 µM.
Next, `FC(F)(F)Cn1cc(Nc2nc(C3CC3)nc3cn[nH]c23)cn1` [Example 374, 5-cyclopropyl-N-(1-(2,2,2-trifluoroethyl)-1H-pyrazol-4-yl)-1H-pyrazolo[4,3-d]pyrimidin-7-amine]: 0.01 to 0.1 µM; `FC(F)(F)Cn1cc(Nc2nc(-c3ccoc3)nc3cn[nH]c23)cn1` [Example 375, 5-(furan-3-yl)-N-(1-(2,2,2-trifluoroethyl)-1H-pyrazol-4-yl)-1H-pyrazolo[4,3-d]pyrimidin-7-amine]: 0.1 to 1 µM; `FC(F)(F)Cn1cc(Nc2nc(-c3ccco3)nc3cn[nH]c23)cn1` [Example 377, 5-(furan-2-yl)-N-(1-(2,2,2-trifluoroethyl)-1H-pyrazol-4-yl)-1H-pyrazolo[4,3-d]pyrimidin-7-amine]: 0.01 to 0.1 µM.
Consider `CC(C)Cn1cc(-c2nc(Nc3ccc(N4CCOCC4)cc3)c3[nH]ncc3n2)cn1` [Example 383, 5-(1-isobutyl-1H-pyrazol-4-yl)-N-(4-morpholinophenyl)-1H-pyrazolo[4,3-d]pyrimidin-7-amine], for which the IC50 lay in the range of 0.1 to 1 µM.
`CCCc1nc(Nc2ccc(N3CCOCC3)cc2)c2[nH]ncc2n1` [Example 386, N-(4-morpholinophenyl)-5-propyl-1H-pyrazolo[4,3-d]pyrimidin-7-amine] gave a concentration for half-maximal inhibition (IC50) of 0.1 to 1 µM.
With `COc1ccc(Nc2nc(C3CCCCCC3)nc3cn[nH]c23)cc1OC` [Example 388, 5-cycloheptyl-N-(3,4-dimethoxyphenyl)-1H-pyrazolo[4,3-d]pyrimidin-7-amine] the figure was 0.1 to 1 µM.
Next, `COCCn1cc(-c2nc(Nc3ccc(N4CCOCC4)cc3)c3[nH]ncc3n2)cn1` [Example 393, 5-(1-(2-methoxyethyl)-1H-pyrazol-4-yl)-N-(4-morpholinophenyl)-1H-pyrazolo[4,3-d]pyrimidin-7-amine]: 0.1 to 1 µM; `c1cc(N2CCOCC2)ccc1Nc1nc(-c2cn[nH]c2)nc2cn[nH]c12` [Example 394, N-(4-morpholinophenyl)-5-(1H-pyrazol-4-yl)-1H-pyrazolo[4,3-d]pyrimidin-7-amine]: 0.01 to 0.1 µM.
Next, `COCCn1ncc(Nc2nc(-c3ccco3)nc3cn[nH]c23)c1F` [Example 403, N-(5-fluoro-1-(2-methoxyethyl)-1H-pyrazol-4-yl)-5-(furan-2-yl)-1H-pyrazolo[4,3-d]pyrimidin-7-amine]: 0.1 to 1 µM.
In turn, `COCCn1ncc(Nc2nc(-c3ccco3)nc3cn[nH]c23)c1N(C)C` [Example 404, N4-(5-(furan-2-yl)-1H-pyrazolo[4,3-d]pyrimidin-7-yl)-1-(2-methoxyethyl)-N5,N5-dimethyl-1H-pyrazole-4,5-diamine] gave an IC50 of 0.1 to 1 µM.
With `COc1cccc(-c2nc(Nc3cnn(C4CC4)c3)c3[nH]ncc3n2)c1` [Example 406, N-(1-cyclopropyl-1H-pyrazol-4-yl)-5-(3-methoxyphenyl)-1H-pyrazolo[4,3-d]pyrimidin-7-amine], the concentration for half-maximal inhibition (IC50) was in the range of 0.1 to 1 µM.
With `COc1cccc(-c2nc(Nc3cnn(C4CCN(C(C)(C)C)CC4)c3)c3[nH]ncc3n2)c1` [Example 407, N-(1-(1-(tert-butyl)piperidin-4-yl)-1H-pyrazol-4-yl)-5-(3-methoxyphenyl)-1H-pyrazolo[4,3-d]pyrimidin-7-amine] the figure was 0.01 to 0.1 µM.
Next, `COCCCn1cc(Nc2nc(-c3cccc(OC)c3)nc3cn[nH]c23)cn1` [Example 408, 5-(3-methoxyphenyl)-N-(1-(3-methoxypropyl)-1H-pyrazol-4-yl)-1H-pyrazolo[4,3-d]pyrimidin-7-amine]: 0.01 to 0.1 µM.
Next, `COc1cccc(-c2nc(Nc3cnn(C4CCOCC4)c3)c3[nH]ncc3n2)c1` [Example 409, 5-(3-methoxyphenyl)-N-(1-(tetrahydro-2H-pyran-4-yl)-1H-pyrazol-4-yl)-1H-pyrazolo[4,3-d]pyrimidin-7-amine]: 0.01 to 0.1 µM.
Molecule `c1ccc2sc(-c3nc(Nc4cnn(C5CC5)c4)c4[nH]ncc4n3)nc2c1` [Example 410, 5-(benzo[d]thiazol-2-yl)-N-(1-cyclopropyl-1H-pyrazol-4-yl)-1H-pyrazolo[4,3-d]pyrimidin-7-amine] displayed an IC50 of under 0.01 µM.
Next, `CC(C)(C)N1CCC(n2cc(Nc3nc(-c4nc5ccccc5s4)nc4cn[nH]c34)cn2)CC1` [Example 411, 5-(benzo[d]thiazol-2-yl)-N-(1-(1-(tert-butyl)piperidin-4-yl)-1H-pyrazol-4-yl)-1H-pyrazolo[4,3-d]pyrimidin-7-amine]: under 0.01 µM; `COCCCn1cc(Nc2nc(-c3nc4ccccc4s3)nc3cn[nH]c23)cn1` [Example 412, 5-(benzo[d]thiazol-2-yl)-N-(1-(3-methoxypropyl)-1H-pyrazol-4-yl)-1H-pyrazolo[4,3-d]pyrimidin-7-amine]: under 0.01 µM.
Next, `c1ccc2sc(-c3nc(Nc4cnn(C5CCOCC5)c4)c4[nH]ncc4n3)nc2c1` [Example 413, 5-(benzo[d]thiazol-2-yl)-N-(1-(tetrahydro-2H-pyran-4-yl)-1H-pyrazol-4-yl)-1H-pyrazolo[4,3-d]pyrimidin-7-amine]: under 0.01 µM; `CC(C)n1cc(Nc2nc(-c3ccc4cn[nH]c4c3)nc3cn[nH]c23)cn1` [Example 414, 5-(1H-indazol-6-yl)-N-(1-isopropyl-1H-pyrazol-4-yl)-1H-pyrazolo[4,3-d]pyrimidin-7-amine]: 0.01 to 0.1 µM.
`CC(C)(C)n1cc(Nc2nc(-c3ccc4cn[nH]c4c3)nc3cn[nH]c23)cn1` [Example 415, N-(1-(tert-butyl)-1H-pyrazol-4-yl)-5-(1H-indazol-6-yl)-1H-pyrazolo[4,3-d]pyrimidin-7-amine] yielded an IC50 of 0.01 to 0.1 µM.
Next, `CC(C)(C#N)n1cc(Nc2nc(-c3ccc4cn[nH]c4c3)nc3cn[nH]c23)cn1` [Example 416, 2-(4-((5-(1H-indazol-6-yl)-1H-pyrazolo[4,3-d]pyrimidin-7-yl)amino)-1H-pyrazol-1-yl)-2-methylpropanenitrile]: 0.01 to 0.1 µM; `FCCn1cc(Nc2nc(-c3ccc4cn[nH]c4c3)nc3cn[nH]c23)cn1` [Example 417, N-(1-(2-fluoroethyl)-1H-pyrazol-4-yl)-5-(1H-indazol-6-yl)-1H-pyrazolo[4,3-d]pyrimidin-7-amine]: under 0.01 µM; `c1nn(C2CC2)cc1Nc1nc(-c2ccc3cn[nH]c3c2)nc2cn[nH]c12` [Example 418, N-(1-cyclopropyl-1H-pyrazol-4-yl)-5-(1H-indazol-6-yl)-1H-pyrazolo[4,3-d]pyrimidin-7-amine]: under 0.01 µM.
Next, `COCCCn1cc(Nc2nc(-c3ccc4cn[nH]c4c3)nc3cn[nH]c23)cn1` [Example 419, 5-(1H-indazol-6-yl)-N-(1-(3-methoxypropyl)-1H-pyrazol-4-yl)-1H-pyrazolo[4,3-d]pyrimidin-7-amine]: 0.01 to 0.1 µM; `CC(C)n1cc(Nc2nc(-c3cnn(C)c3)nc3cn[nH]c23)cn1` [Example 420, N-(1-isopropyl-1H-pyrazol-4-yl)-5-(1-methyl-1H-pyrazol-4-yl)-1H-pyrazolo[4,3-d]pyrimidin-7-amine]: 0.01 to 0.1 µM.
With `CC(C)n1cc(-c2nc(Nc3ccc(N4CCOCC4)cc3)c3[nH]ncc3n2)cn1` [Example 421, 5-(1-isopropyl-1H-pyrazol-4-yl)-N-(4-morpholinophenyl)-1H-pyrazolo[4,3-d]pyrimidin-7-amine] the figure was 0.01 to 0.1 µM; with `OCCN1CCN(c2ccc(Nc3nc(-c4ccc5cn[nH]c5c4)nc4cn[nH]c34)cc2)CC1` [Example 422, 2-(4-(4-((5-(1H-indazol-6-yl)-1H-pyrazolo[4,3-d]pyrimidin-7-yl)amino)phenyl)piperazin-1-yl)ethan-1-ol], 0.01 to 0.1 µM; with `CC(C)Cn1cc(Nc2nc(-c3ccc4cn[nH]c4c3)nc3cn[nH]c23)cn1` [Example 423, 5-(1H-indazol-6-yl)-N-(1-isobutyl-1H-pyrazol-4-yl)-1H-pyrazolo[4,3-d]pyrimidin-7-amine], 0.01 to 0.1 µM.
The molecule `COCCCn1cc(Nc2nc(-c3cccc(S(N)(=O)=O)c3)nc3cn[nH]c23)cn1` [Example 424, 3-(7-((1-(3-methoxypropyl)-1H-pyrazol-4-yl)amino)-1H-pyrazolo[4,3-d]pyrimidin-5-yl)benzenesulfonamide] had a half-maximal inhibitory concentration (IC50) of 0.1 to 1 µM.
